Experimental data taken from patent US9181232B2, “Difluoro-hexahydro-cyclopentaoxazinyls and difluoro-hexahydro-benzooxazinyls as BACE1 inhibitors” (Hoffmann-La Roche Inc., priority 2012, dated 2015).

How the values were obtained:
hERG channel = target: T1, hERG channel (Homo sapiens, UniProt Q12809); experiment: PatchXpress hERG inhibition assay; assay type: cell-based; conditions: @ 1 μM; CHO cells expressing hERG
T1 construct: expressed in transfected cells; host or cells: CHO cells
Protocol: The detailed method to quantify hERG channel inhibition by the automated patch clamp system PatchXpress® 7000A (Molecular Devices, Sunnyvale, Calif.) has been described by Guo et al.^12 In brief, Chinese hamster ovary (CHO) cells transfected with the human ether-a-go-go-related gene (hERG) was cultured in Ex-cell 302 media supplemented with 10% fetal bovine serum, 2 mM glutamine and 0.25 mg/ml geneticin and maintained in a CO2 incubator at 37° C. For patch clamp electrophysiology, the external buffer contained (in mM): 150 NaCl, 10 Hepes, 4 KCl, 1.2 CaCl2, 1 MgCl2, pH 7.4 adjusted with […] and the internal recording solution contained (in mM): 140 KCl, 6 EGTA, 5 Hepes, MgCl2, 5 ATP-Na2, pH 7.2 adjusted with KOH. Once the cell was loaded in the recording chamber and formed a giga ohm seal with the planar glass electrodes (Sealchip™), a whole-cell configuration was achieved by rupturing the cell membrane. The membrane potential was then clamped at −80 mV and the hERG channel activated by a 1-second depolarizing pulse delivered at 0.1 Hz, the hERG current was measured during the 500 ms-repolarizing pulse to −40 mV. After an acceptable hERG current recording was obtained, the cell was first exposed to 0.3% DMSO as the vehicle control, followed by the test article in three ascending, full-log interval concentrations and finally E-4031 at 1 μM (as the positive control) to block the hERG current completely. Each test article was tested on three or more cells and at concentrations up to 30 μM or the solubility limit determined the BD Gentest™ solubility scanner. The inhibition of hERG current at each concentration was normalized to that recorded in the vehicle control, and fitted with Hill equation to calculate IC20 and/or IC50.

CYP3A4 = target: T2, CYP3A4 (Homo sapiens, UniProt P08684); experiment: CYP inhibition assay, human liver microsomes, midazolam; assay type: in vitro ADME; conditions: read-out: CYP IC50 3A4
T2 construct: 0.2 mg/ml pooled human liver microsomes; from tissue; host or cells: pooled human liver microsomes
T2 sequence (P08684 whole entry): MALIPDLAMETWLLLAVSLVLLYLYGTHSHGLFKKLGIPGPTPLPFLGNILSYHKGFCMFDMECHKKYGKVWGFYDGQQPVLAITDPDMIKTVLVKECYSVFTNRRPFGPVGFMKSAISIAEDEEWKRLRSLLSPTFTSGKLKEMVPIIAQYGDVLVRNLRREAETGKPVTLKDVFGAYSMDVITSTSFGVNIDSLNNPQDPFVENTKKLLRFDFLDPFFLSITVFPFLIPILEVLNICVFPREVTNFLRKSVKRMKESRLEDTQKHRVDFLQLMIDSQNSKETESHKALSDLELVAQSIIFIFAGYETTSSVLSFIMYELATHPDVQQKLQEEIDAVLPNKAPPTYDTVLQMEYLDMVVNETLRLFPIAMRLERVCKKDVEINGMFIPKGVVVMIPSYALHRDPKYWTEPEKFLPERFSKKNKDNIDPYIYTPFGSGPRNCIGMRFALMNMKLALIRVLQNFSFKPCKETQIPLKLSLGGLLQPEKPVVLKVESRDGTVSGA
Protocol: (§1) Inhibition of cytochromes P450 (CYPs) 2C9, 2D6 and 3A4 was assessed using human liver microsomes and CYP-selective substrate metabolism reactions. 50 μl incubations were made up containing (finally) 0.2 mg/ml pooled human liver microsomes, 5 μM substrate (diclofenac for CYP2C9 [4′hydroxylase], dextromethorphan for CYP2D6 [O-demethylase] or midazolam for CYP3A4 [1′hydroxylase]), 0.25 μL DMSO containing test inhibitor and NADPH regenerating system. Test inhibitor concentrations of 50, 16.7, 5.6, 1.9, 0.6 and 0.2 μM were assessed in singlicate. Incubations were prewarmed to 37° C. for 10 minutes before initiation by addition of NADPH regenerating system. Incubations were quenched after 5 minutes (20 minutes for dextromethorphan) by addition of 50 μl cold acetonitrile containing 20 ng/ml 4-OH-diclofenac-13C6, 20 ng/mL dextrorphan-D3 and 20 ng/mL 1-OH-midazolam-D4. Quenched incubates were stored at −20° C. for at least 1 hour before centrifugation (20,000×g, 20 minutes). Supernatants were removed and diluted 1:1 with water prior to analysis using a RapidFire sample injector system and API4000 mass spectrometer. Peak areas for substrate, metabolite and stable-labelled metabolite standard were determined using MS/MS. The peak area ratios between the metabolite generated by the enzymatic reaction and the internal standard were used in subsequent calculations. The percentage of (DMSO) control activity was calculated for each incubate and IC50 values estimated by non-linear regression. Sulfaphenazole, quinidine or ketoconazole were tested in each CYP2C9, CYP2D6 or CYP3A4 inhibition experiment, respectively, to ensure assay sensitivity and reproducibility. (Validated assays for human cytochrome P450 activities^11)

CYP2C9 = target: T3, CYP2C9 (Homo sapiens, UniProt P11712); experiment: CYP inhibition assay, human liver microsomes, diclofenac; assay type: in vitro ADME; conditions: read-out: CYP IC50 2C9
T3 construct: 0.2 mg/ml pooled human liver microsomes; from tissue; host or cells: pooled human liver microsomes
T3 sequence (P11712 whole entry): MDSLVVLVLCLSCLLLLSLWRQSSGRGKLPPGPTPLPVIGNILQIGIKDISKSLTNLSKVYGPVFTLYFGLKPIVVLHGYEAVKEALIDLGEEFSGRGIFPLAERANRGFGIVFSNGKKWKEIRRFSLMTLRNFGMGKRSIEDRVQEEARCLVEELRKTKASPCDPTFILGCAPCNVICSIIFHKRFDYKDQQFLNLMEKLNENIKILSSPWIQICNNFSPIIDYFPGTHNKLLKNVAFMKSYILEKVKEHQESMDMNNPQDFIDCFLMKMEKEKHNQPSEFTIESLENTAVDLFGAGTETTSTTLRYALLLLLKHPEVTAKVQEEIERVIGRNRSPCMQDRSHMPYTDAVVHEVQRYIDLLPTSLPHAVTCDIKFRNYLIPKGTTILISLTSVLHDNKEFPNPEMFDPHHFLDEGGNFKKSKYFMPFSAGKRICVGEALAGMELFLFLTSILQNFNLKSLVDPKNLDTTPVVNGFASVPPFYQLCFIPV
Protocol: as §1

in vivo effect = conditions: @ 30 mg/kg p.o.
[1] = target: T4, recombinant human cathepsin E (Homo sapiens, UniProt P14091); experiment: Cathepsin E fluorescent substrate kinetic assay; assay type: biochemical; conditions: pH 4.5
T4 construct: purchased R&D Systems
T4 sequence (P14091 54-396): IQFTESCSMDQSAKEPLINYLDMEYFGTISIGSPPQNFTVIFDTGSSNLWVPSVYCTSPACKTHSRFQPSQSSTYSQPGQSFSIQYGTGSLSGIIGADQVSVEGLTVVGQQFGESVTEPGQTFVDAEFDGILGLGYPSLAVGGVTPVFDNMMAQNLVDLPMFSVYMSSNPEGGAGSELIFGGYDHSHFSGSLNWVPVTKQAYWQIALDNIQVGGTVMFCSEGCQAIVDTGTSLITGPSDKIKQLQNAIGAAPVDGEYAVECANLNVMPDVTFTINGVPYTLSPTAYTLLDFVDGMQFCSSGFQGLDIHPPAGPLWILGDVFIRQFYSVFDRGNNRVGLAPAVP
Source text: The MR121 fluorescence assays described below are based on the fact that MR121 forms a non-fluorescent ground state complex with tryptophan. In solution this formation occurs at millimolar concentrations of tryptophan. The mechanism can be used to design a generic biochemical assay for proteases. A substrate peptide is labeled at the N-terminus with tryptophan and at the C-terminus with the fluorophore MR121 (for cathepsin D the 10 amino acid peptide WTSVLMAAPC-MR121 was used; for cathepsin E, MR121-CKLVFFAEDW was used). In absence of protease activity, the substrates remain intact and the MR121 fluorescence is reduced by the high local Trp-concentration. If the substrates are cleaved by the enzymes the MR121 fluorescence is recovered.
The fluorescent substrate cathepsin D and cathepsin E kinetic assays were performed at room temperature in 384-well microtiter plates (black with clear flat bottom, non binding surface plates from Corning) in a final volume of 51 μl. The test compounds were serially diluted in DMSO (15 concentrations, 1/3 dilution steps) and 1 μl of diluted compounds were mixed for 10 min with 40 μl of cathepsin D (from human liver, Calbiochem) diluted in assay buffer (100 mM sodium acetate, 0.05% BSA, pH 5.5; final concentration: 200 nM) or with 40 μl of recombinant human cathepsin E (R&D Systems) diluted in assay buffer (100 mM sodium acetate, 0.05% BSA, pH 4.5; final concentration: 0.01 nM). After addition of 10 μl of the cathepsin D substrate WTSVLMAAPC-MR121 diluted in cathepsin D assay buffer (final concentration: 300 nM) or […] cathepsin E substrate MR121-CKLVFFAEDW diluted in cathepsin E assay buffer (final concentration: 300 nM), the plates were strongly shaken for 2 minutes. The enzymatic reaction was followed in a plate: vision reader (Perkin Elmer) (excitation wavelength: 630 nm; emission: 695 nm) for at least 30 minutes in a kinetic measurement detecting an increase of MR121 fluorescence during the reaction time. The slope in the linear range of the kinetic was calculated and the IC50 of the test compounds were determined using a four parameter equation for curve fitting.

T1 sequence (Q12809 whole entry): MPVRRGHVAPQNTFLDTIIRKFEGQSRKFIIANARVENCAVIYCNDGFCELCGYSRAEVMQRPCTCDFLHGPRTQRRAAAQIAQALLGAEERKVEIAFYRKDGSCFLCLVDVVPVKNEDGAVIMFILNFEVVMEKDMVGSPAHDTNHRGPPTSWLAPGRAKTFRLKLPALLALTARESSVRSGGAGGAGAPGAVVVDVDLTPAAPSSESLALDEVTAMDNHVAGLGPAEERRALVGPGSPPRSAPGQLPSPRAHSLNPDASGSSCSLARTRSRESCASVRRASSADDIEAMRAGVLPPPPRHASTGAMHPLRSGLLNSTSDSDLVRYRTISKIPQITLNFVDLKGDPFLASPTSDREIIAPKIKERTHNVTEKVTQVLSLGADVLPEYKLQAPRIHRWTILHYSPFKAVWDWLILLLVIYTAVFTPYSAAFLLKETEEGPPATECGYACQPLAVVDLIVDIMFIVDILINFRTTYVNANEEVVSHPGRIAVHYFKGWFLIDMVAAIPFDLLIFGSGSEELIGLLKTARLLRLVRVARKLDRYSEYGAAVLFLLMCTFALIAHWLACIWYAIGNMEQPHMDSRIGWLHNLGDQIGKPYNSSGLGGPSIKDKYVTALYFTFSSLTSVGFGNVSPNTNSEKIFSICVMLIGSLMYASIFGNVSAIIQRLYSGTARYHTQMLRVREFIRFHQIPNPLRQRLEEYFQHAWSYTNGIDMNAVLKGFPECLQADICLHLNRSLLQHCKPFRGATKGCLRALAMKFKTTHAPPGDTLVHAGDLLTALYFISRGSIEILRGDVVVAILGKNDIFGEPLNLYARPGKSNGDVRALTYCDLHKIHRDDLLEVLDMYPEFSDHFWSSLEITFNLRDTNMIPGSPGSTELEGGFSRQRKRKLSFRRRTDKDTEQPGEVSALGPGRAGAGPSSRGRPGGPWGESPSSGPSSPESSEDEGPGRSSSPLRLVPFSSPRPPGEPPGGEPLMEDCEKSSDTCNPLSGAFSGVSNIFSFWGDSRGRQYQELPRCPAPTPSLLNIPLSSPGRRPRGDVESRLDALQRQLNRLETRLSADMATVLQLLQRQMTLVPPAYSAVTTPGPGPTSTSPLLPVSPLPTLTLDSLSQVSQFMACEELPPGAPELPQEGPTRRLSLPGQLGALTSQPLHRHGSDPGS

Row | Structure (SMILES) | hERG inhibition (hERG channel) | IC50 (CYP3A4) [µM] | IC50 (CYP2C9) [µM] | in vivo effect (% of control) (in vivo effect) | IC50 [1] [µM]
1 | C[C@]1(c2cc(NC(=O)c3ccc(C#N)cn3)ccc2F)N=C(N)O[C@@H]2CCC(F)(F)[C@@H]21 [Example 2, 5-Cyano-pyridine-2-carboxylic acid [3-((4S,4aR,7aR)-2-amino-5,5-difluoro-4-methyl-4,4a,5,6,7,7a-hexahydro-cyclopenta[e][1,3]oxazin-4-yl)-4-fluoro-phenyl]-amide] | A (A = less than 50% inhibition @ 1 μM) | > 10 | > 10 | A (A = less than 50% of control @ 30 mg/kg p.o.) | 90
2 | C[C@]1(c2cc(NC(=O)c3ccc(C#N)cn3)ccc2F)N=C(N)O[C@@H]2CCCC(F)(F)[C@@H]21 [Example 8, 5-Cyano-pyridine-2-carboxylic acid [3-((4S,4aR,8aR)-2-amino-5,5-difluoro-4-methyl-4a,5,6,7,8,8a-hexahydro-4H-benzo[e][1,3]oxazin-4-yl)-4-fluoro-phenyl]-amide] | A (A = less than 50% inhibition @ 1 μM) | > 10 | > 10 | A (A = less than 50% of control @ 30 mg/kg p.o.) | > 200
3 | CC#CCOc1cnc(C(=O)Nc2ccc(F)c([C@@]3(C)N=C(N)O[C@@H]4CCC(F)(F)[C@@H]43)c2)cn1 [Example 1, 5-But-2-ynyloxy-pyrazine-2-carboxylic acid [3-((4S,4aR,7aR)-2-amino-5,5-difluoro-4-methyl-4,4a,5,6,7,7a-hexahydro-cyclopenta[e][1,3]oxazin-4-yl)-4-fluoro-phenyl]-amide] | A (A = less than 50% inhibition @ 1 μM) | > 10 | > 10 | A (A = less than 50% of control @ 30 mg/kg p.o.) | 97
